# Laboratory results taken from PMC7301643 (Biochemistry, 2020).
# Key:
# CP:F-actin barbed end = CP:F-actin barbed end (Mus musculus, UniProt P47753+P47757); test: Pyrene-actin polymerization; type: biochemical, Oryctolagus cuniculus (actin); details: at concentrations higher than 1 μM
# [1] = target: T1, capping protein (CP, CPα1β2) (Mus musculus, UniProt P47753+P47757); test: Isothermal calorimetry; type: binding; details: for ΔG°obs, ITC: ΔG° = −RT ln Ka
# CP bound to F-actin = CP bound to F-actin (Mus musculus, UniProt Q5RKN9+Q923G3); test: Kd for CPI binding to CP bound to F-actin, calculated from thermodynamic cycle; set-up: species or system Oryctolagus cuniculus (actin)
# [2] = target: T1, capping protein (CP, CPα1β2); test: Fluorescence anisotropy titration of CP into TAMRA-labeled CPI-motif peptide; type: binding
# [3] = independent experiment 1 (first line), 25 °C, pH 7.2
# [4] = independent experiment 2 (second line)
substance,measurement,setting,value
Ac-WASHCAP-NH2 [WASHCAP],interference of peptide with actin polymerization,CP:F-actin barbed end,interfered with polymerization
same,"N (stoichiometry), ITC",[1]; [3],0.985 ± 0.004
same,"TΔS°obs, ITC",[1]; [3],-14.1 kcal/mol
same,"ΔH°obs, ITC",[1]; [3],-24.6 ± 0.1 kcal/mol
same,"ΔG°obs, ITC",[1]; [3],-10.56 ± 0.04 kcal/mol
same,"N (stoichiometry), ITC",[1]; [4],0.971 ± 0.009
same,"TΔS°obs, ITC",[1]; [4],-18.3 kcal/mol
same,"ΔH°obs, ITC",[1]; [4],-28.9 ± 0.4 kcal/mol
same,"ΔG°obs, ITC",[1]; [4],-10.60 ± 0.10 kcal/mol
same,Kd,CP bound to F-actin,110 ± 10 nM
same,Kd,[2],8.5 ± 0.8 nM
